Tests used:
Leishmania [1] = test: Parasitemy: direct exam of bone marrow smear and cultivation on NNN medium; format: in vivo, dog; set-up: key: − = absence; settings: vaccinated dogs, 2 months and 12 months after the infectious test
Excerpt: A parasitological exam was done from the sample taken directly from the candidate studied, a dog, for example.
A smear of a puncture of the bone marrow is made on a slide. This smear, fixed once by methanol, is stained with May-Grünwald-Geimsa and observed by an immersion microscope (x 1000).
Samples of the bone marrow are brought under cultivation in the biphase cultivation medium NNN (Novy and Mac Neal, 1904, 4. Infec. Dis., 1:1-30), of which RPMI 1640 supplemented with 20% decomplemented fetal calf serum constitutes the liquid phase. The blind subculturings were done every four to six days. The cultures are regularly observed in a photon microscope (×400) for 20 min.
The parasitemy was quantified as follows:
The infectious examination consists in intravenously injecting 106 treated promastigotes in metacyclic phase in the complement of a healthy dog and 5.106 peritoneal macrophages of a healthy dog, infected in vitro by the amastigotes.
The promastigotes and infected macrophages are diluted in sterile physiological serum for a final volume of 1.5 ml. This mixture is made just prior to injection.
To these analyses must be added the search for Leishmania by direct observation in a microscope and cultivation on NNN medium from bone marrow after the infectious test.

Leishmania [2] = test: Leishmaniasis serology: quantitative anti-Leishmania immunofluorescence; format: in vivo, dog; set-up: key: +: IF: Immunofluorescence (considered positive if the titer is ≧1/100); − = absence; settings: healthy dogs vaccinated with peptide(s) 50 μg + muramyl dipeptide 100 μg; analyses 2 months and 12 months after the infectious test
Excerpt: In parallel to the study of the specific activation of the T lymphocytes the Th1 type by intradermoreaction, dosage of the NO (NO is synthesized by monocytes activated by the cytokines of the T cells of the Th1 type) and lymphocyte proliferation, a serological monitoring by traditional immunofluorescence using strips coated with the promastigotes (serological reference method for canine leishmaniasis) is done.
(§1) The biological analyses consist of: • biochemical analyses: urea, creatine, transaminases • hematological analyses: count, formula • serology leishmaniasis: quantitative anti-Leishmania immunofluorescence, dosage by the ELISA method of IgG2s specific to the peptides A16E and/or A16G • cellular response tests: IDR test (IntraDermoReaction) done with leishmanines and also with A16E and A16G peptides, dosage of NO and lymphoblastic proliferation.

[3] = system: IgG2 specific to the peptides A16E and/or A16G; test: ELISA detection of IgG2 specific to the peptides A16E and A16G; format: in vivo, dog; settings: vaccinated dogs, ELISA towards the corresponding peptides; for SEROLOGY ELISA IgG2 (positive/negative): 2 months and 12 months after the infectious test; for SEROLOGY ELISA IgG2 (optical density): cut off 0.300 OD
Excerpt: Detection of immunoglobulins of the isotype IgG2 of dogs, specifically of the peptides A16E and A16G and their derivatives:
This detection is done by the ELISA method according to the microtitration technique of Kweider et al (J. Immunol. 1987, 138, 299) using a bonded anti IgG2. For this method, the peptides are biotinylated prior to coating on microplates.
as §1

[4] = system: cell-mediated immunity of the Th1 type; test: Intra Dermo Reaction (IDR) test; format: in vivo, dog; settings: vaccinated dogs, 2 months after the infectious test; for IDR A16E: IDR done with peptide A16E; for IDR A16G: IDR done with peptide A16G; for IDR Leishmanines: read 48 h after intradermoinjection
Description: Evidence of the involvement of a cell-mediated immunity of the Th1 type:
Leishmanias of the promastigote forms are cultivated in the standard culture media. Parasites are harvested from the end of the exponential phase (6-7 days). The parasitic residue is washed three times by centrifugation (2500 g, […], 4° C.) in a PBS buffer.
After having verified the viability of the parasites using a vital stain (Trypan Blue), a suspension containing […] parasites per ml is inactivated in a PBS buffer containing 0.01% merthiolate (Pinelli et al., 1994, Infect. Immun., 62: 229-235). This constitutes the leishmanias for the intradermoreaction test (IDR).
Dogs are placed in lateral decubitus and a delicate and non-irritating shearing is done on the thoracic zone approximately 5 cm by 10 cm behind the elbow. Four circles 10 mm in diameter are marked using a felt-tip pen.
Into the center of the circles, 0.1 ml of solution is injected in an intradermo-injection. Two circles receive the solution of leishmanias and the 2 other circles receive the saline methiolated solution in the negative control. The reading of the Intra Dermo Reaction (IDR) is done 48 hours later using an allergologic gauge.
The test is considered positive if the mean of the two observed induration diameters is greater than or equal to 5 mm. The observation of an erythema without induration will be considered to be a negative test (Pinelli et al., 1994, Infect. Immun., 62: 229-235; Marty et al., 1994, Trans. Roy. Soc. Trop. Med. Hyg., 88, 658-659).
The IDRs can also be performed with a solution of peptides A16E and A16G or their derivatives and MDP, for example, in proportions of 10 μg of peptides for 20 μg of MDP.

[5] = system: peripheral blood mononuclear cells (PBMC); test: Lymphocyte (lymphoblastic) proliferation test; format: cell-based, dog; settings: vaccinated dogs; 2 months after the infectious test
Description: Next, a test is done on the lymphocyte proliferation.
The peripheral blood mononuclear cells (PBMC) of dogs are separated on the Ficoll gradient (density 1.078) by centrifugation at 800 g for 20 mn at ambient temperature. These cells are brought under cultivation on a plate having 96 wells at a concentration of 2.10^5 cells per well in the presence of 2 μg per ml of Concanavalin A (Sigma), 5 μg per ml of ES P (excretion—secretion promastigotes) or […] of supernatants of culture harvested in the stationary phase of growth of promastigotes (SP) per well, and in the absence of any additive in a volume of […] of the medium RPMI 1640 containing 5% decomplemented fetal calf serum, 2 mM of L-glutamine, 100 U of penicillin per ml, […] of streptomycin per ml. The optimal antigen and mitogen concentrations have been determined in prior experiments. […] The cells are harvested over a filter and the incorporation of the radioactivity is determined by counting in a scintillating liquid (β-counter). […]
The lymphocytary proliferation has also been estimated by visual readings in a photon microscope (−: negative; +/−: slight proliferation; +: little proliferation less than 5 points per microscopic field; ++: mean proliferation greater than 5 points; +++: strong proliferation).

Row | Substance | Cultivation on NNN Medium (Leishmania [1]) | PARASITEMY Direct Exam (Leishmania [1]) | SEROLOGY IF Quantitative (Leishmania [2]) | SEROLOGY ELISA IgG2 (positive/negative) [3] | SEROLOGY ELISA IgG2 (optical density) [3] [OD] | IDR A16E [4] | IDR A16G [4] | IDR Leishmanines [4] | Lymphoblastic Proliferation Test, reading in a photon microscope [5]
1 | A-A-S-S-T-P-S-P-G-S-G-C-E-V-D-G [A16G, 16 amino acid peptide specific to Leishmania] | − | − | − | + (ELISA: Cut off = 0.300 OD (optical density)) | 0.520 | Limit | + (The Intra Dermo Reaction test is considered positive (+) if the induration is ≧5 mm 48 h. after intradermoinjection) | + (The Intra Dermo Reaction test is considered positive (+) if the induration is ≧5 mm 48 h. after intradermoinjection) | ++ (mean proliferation greater than 5 points)
2 | A-A-R-S-A-R-S-R-E-G-Y-S-L-T-D-E [A16E, 16 amino acid peptide specific to Leishmania] | − | − | − | + (ELISA: Cut off = 0.300 OD (optical density)) | 0.700 | + (The Intra Dermo Reaction test is considered positive (+) if the induration is ≧5 mm 48 h. after intradermoinjection) | Limit | + (The Intra Dermo Reaction test is considered positive (+) if the induration is ≧5 mm 48 h. after intradermoinjection) | + (little proliferation less than 5 points per microscopic field)

— patent US20050079186A1, “Therapeutic vaccine peptide complex for preventing and treating disorders in mammals” (ORIDAN, Inc., priority 2001, published 2005)
